Reference: paper PMC8703317, “2-(Piperidin-4-yl)acetamides as Potent Inhibitors of Soluble Epoxide Hydrolase with Anti-Inflammatory Activity” (Pharmaceuticals, 2021)

Assays:
murine sEH = target: T1, murine sEH (Mus musculus, UniProt P34914); assay: fluorescent-based sEH inhibition assay, recombinant mouse sEH; assay type: biochemical; details: baculovirus expressed recombinant mouse sEH, average of three replicates
T1 construct: made in house; host or cells: baculovirus expression system (insect cells implied)
T1 sequence (P34914 1-554): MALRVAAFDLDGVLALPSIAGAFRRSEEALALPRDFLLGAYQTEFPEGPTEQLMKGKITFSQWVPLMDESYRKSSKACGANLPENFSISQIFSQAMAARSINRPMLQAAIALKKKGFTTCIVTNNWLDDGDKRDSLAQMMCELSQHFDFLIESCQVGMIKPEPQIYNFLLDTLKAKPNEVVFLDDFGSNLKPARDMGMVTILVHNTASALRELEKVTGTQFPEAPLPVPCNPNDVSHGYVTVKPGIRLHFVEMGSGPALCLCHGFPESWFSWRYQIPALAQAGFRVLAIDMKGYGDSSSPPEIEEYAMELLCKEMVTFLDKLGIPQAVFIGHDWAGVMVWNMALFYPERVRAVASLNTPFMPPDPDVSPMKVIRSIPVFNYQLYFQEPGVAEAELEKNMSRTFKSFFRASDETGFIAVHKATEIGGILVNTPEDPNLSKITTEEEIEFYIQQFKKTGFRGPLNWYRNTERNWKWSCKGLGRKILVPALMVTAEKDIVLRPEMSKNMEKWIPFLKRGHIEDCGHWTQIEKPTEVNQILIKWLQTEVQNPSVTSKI
Protocol: (§1) The potency of all the new compounds as inhibitors of the human and murine sEH was tested using a previously reported sensitive fluorescent-based assay using baculovirus expressed recombinant human and mouse sEH [28].

[1] = microsomal stability, human microsomes; assay type: in vitro ADME; details: pooled human microsomes, pH 7.4; 60 min incubation with human microsomes, NADPH, 37 °C
Protocol: (§2) The human and murine pooled microsomes employed were purchased from Tebu-Xenotech (Barcelona, Spain). The compound was incubated at 37 °C with the microsomes in a 50 mM phosphate buffer (pH = 7.4) containing 3 mM MgCl2, 1 mM NADP, 10 mM glucose-6-phosphate and 1 U/mL glucose-6-phosphate-dehydrogenase. Samples (75 µL) were taken from each well at 0, 10, 20, 40 and 60 min and transferred to a plate containing 4 °C 75 µL acetonitrile and 30 µL of 0.5% formic acid in water were added for improving the chromatographic conditions. The plate was centrifuged (46000 g, 30 min) and supernatants were taken and analyzed in a UPLC-MS/MS (Xevo-TQD, Waters) by employing a BEH C18 column and an isocratic gradient of 0.1% formic acid in water: 0.1% formic acid acetonitrile (60:40). The metabolic stability of the compounds was calculated from the logarithm of the remaining compounds at each of the time points studied.

[2] = microsomal stability, mouse microsomes; assay type: in vitro ADME; details: pooled murine microsomes, pH 7.4; 60 min incubation with mouse microsomes, NADPH, 37 °C
Protocol: as §2

human sEH = target: T2, human sEH (Homo sapiens, UniProt P34913); assay: fluorescent-based sEH inhibition assay, recombinant human sEH; assay type: biochemical; details: baculovirus expressed recombinant human sEH, average of three replicates
T2 construct: made in house; host or cells: baculovirus expression system (insect cells implied)
T2 sequence (P34913 1-555): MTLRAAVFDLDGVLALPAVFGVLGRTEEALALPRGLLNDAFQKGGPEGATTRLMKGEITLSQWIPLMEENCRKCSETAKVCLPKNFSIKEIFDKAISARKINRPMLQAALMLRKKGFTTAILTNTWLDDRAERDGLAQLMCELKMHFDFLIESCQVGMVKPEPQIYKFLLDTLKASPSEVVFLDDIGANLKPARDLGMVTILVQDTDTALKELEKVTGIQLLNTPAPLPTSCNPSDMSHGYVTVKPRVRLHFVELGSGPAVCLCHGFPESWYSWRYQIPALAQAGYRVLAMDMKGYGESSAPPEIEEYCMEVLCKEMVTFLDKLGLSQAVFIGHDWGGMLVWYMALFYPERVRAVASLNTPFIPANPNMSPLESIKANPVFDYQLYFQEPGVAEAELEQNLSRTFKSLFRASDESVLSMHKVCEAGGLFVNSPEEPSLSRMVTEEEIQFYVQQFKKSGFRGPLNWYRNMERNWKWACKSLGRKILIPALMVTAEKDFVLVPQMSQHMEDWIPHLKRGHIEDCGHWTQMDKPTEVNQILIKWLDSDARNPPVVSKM
Protocol: as §1

Row | SMILES | IC50 (murine sEH) [nM] | remaining at 1 h [1] [%] | remaining at 1 h [2] [%] | IC50 (human sEH) [nM] | melting point [°C]
1 | CC(=O)N1CCC(CC(=O)NC23CC4CC(C)(CC(C2)c2ccccc24)C3)CC1 [6a, 2-(1-Acetylpiperidin-4-yl)-N-(9-methyl-5,6,8,9,10,11-hexahydro-7H-5,9:7,11-dimethanobenzo[9]annulen-7-yl)acetamide] | 0.4 | 0.3 | 0 | 34.5 | 
2 | CC(C)S(=O)(=O)N1CCC(CC(=O)NC23CC4CC(C)(CC(C2)c2ccccc24)C3)CC1 [6b, 2-[1-(Isopropylsulfonyl)piperidin-4-yl]-N-(9-methyl-5,6,8,9,10,11-hexahydro-7H-5,9:7,11-dimethanobenzo[9]annulen-7-yl)acetamide] | 0.4 | 0 | 0 | 30.2 | 
3 | CC(C)S(=O)(=O)N1CCC(CC(=O)NC23CC4CC(F)(CC(C2)c2ccccc24)C3)CC1 [6c, N-(9-Fluoro-5,6,8,9,10,11-hexahydro-7H-5,9:7,11-dimethanobenzo[9]annulen-7-yl)-2-(1-(isopropylsulfonyl)piperidin-4-yl)acetamide] | 0.4 | 5.5 | 5.1 | 1.6 | 192 to 193
4 | CC(C)S(=O)(=O)N1CCC(CC(=O)NC23CC4CC(Cl)(CC(C2)c2ccccc24)C3)CC1 [6d, N-(9-Chloro-5,6,8,9,10,11-hexahydro-7H-5,9:7,11-dimethanobenzo[9]annulen-7-yl)-2-(1-(isopropylsulfonyl)piperidin-4-yl)acetamide] | 0.4 | 7 | 1.4 | 1 | 163 to 164
5 | CC(C)S(=O)(=O)N1CCC(CC(=O)NC23CC4CC(C2)c2ccccc2C(C4)C3)CC1 [6e, N-(5,6,8,9,10,11-Hexahydro-7H-5,9:7,11-dimethanobenzo[9]annulen-7-yl)-2-(1-(isopropylsulfonyl)piperidin-4-yl)acetamide] | 0.5 | 0.6 | 0.2 | 2.8 | 136 to 137
6 | [2H]C12CC3CC(NC(=O)CC4CCN(S(=O)(=O)C(C)C)CC4)(CC(C1)c1ccccc13)C2 [6f, N-(5,6,8,9,10,11-Hexahydro-7H-5,9:7,11-dimethanobenzo[9]annulen-7-yl-9-d)-2-(1-(isopropylsulfonyl)piperidin-4-yl)acetamide] | 0.4 | 1.3 | 0.5 | 2.4 | 138 to 139
7 | CC12CC3CC(NC(=O)CC4CCN(Cc5ccccc5)CC4)(CC(C1)c1ccccc13)C2 [6g, 2-(1-Benzylpiperidin-4-yl)-N-(9-methyl-5,6,8,9,10,11-hexahydro-7H-5,9:7,11-dimethanobenzo[9]annulen-7-yl)acetamide] | 3.3 | 0.1 | 0.1 | 37.5 | 
8 | O=C(CC1CCN(Cc2ccccc2)CC1)NC12CC3CC(F)(CC(C1)c1ccccc13)C2 [6h, 2-(1-Benzylpiperidin-4-yl)-N-(9-fluoro-5,6,8,9,10,11-hexahydro-7H-5,9:7,11-dimethanobenzo[9]annulen-7-yl)acetamide] | 12.9 | 0.3 | 0.1 | 21.4 | 164 to 165
9 | CC(=O)c1ccc(N2CCC(CC(=O)NC34CC5CC(F)(CC(C3)c3ccccc35)C4)CC2)cc1 [10a, 2-(1-(4-Acetylphenyl)piperidin-4-yl)-N-(9-fluoro-5,6,8,9,10,11-hexahydro-7H-5,9:7,11-dimethanobenzo[9]annulen-7-yl)acetamide] | 0.7 | 0.1 | 0.1 | 0.6 | 229 to 230
10 | O=C(CC1CCN(c2ccc(C(=O)O)cc2)CC1)NC12CC3CC(Cl)(CC(C1)c1ccccc13)C2 [10e] | 0.7 | 52 | 6 | 1.7 | 
